# Laboratory results: paper PMC3419725, “A Small Molecule Agonist of EphA2 Receptor Tyrosine Kinase Inhibits Tumor Cell Migration In Vitro and Prostate Cancer Metastasis In Vivo” (PLoS ONE, 2012)
# Biological target: T1, EphA2 (Homo sapiens, UniProt P29317)
# T1 construct: Methods: biotinylated extracellular domain (ECD)
# Assay: SPR; also receptor activation in cells
# Format: binding
# T1 sequence (P29317 28-206 limits assumed): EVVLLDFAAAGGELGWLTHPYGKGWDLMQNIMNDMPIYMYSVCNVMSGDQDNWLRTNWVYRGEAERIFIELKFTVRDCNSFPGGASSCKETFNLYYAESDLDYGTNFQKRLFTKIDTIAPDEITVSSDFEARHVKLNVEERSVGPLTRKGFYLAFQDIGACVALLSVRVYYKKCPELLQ
smiles,measurement,value
"COc1cc2nc(N3CCN(C(=O)C4COc5ccccc5O4)CC3)nc(N)c2cc1OC (stereo not shown) [compound 11, doxazosin]",Kd,47.6 µM
